{"source": "patent US6417010B1", "about": "“Methods and apparatus for synthesizing labeled combinatorial chemistry libraries” (Discovery Partners International, priority 1993, dated 2002)", "test_system": "Monoclonal antibody 3E7", "assay": "Magnetic selection of peptide-bearing ELAMS by microbead-conjugated 3E7 antibody", "format": "binding", "conditions": "PBS, 16 hour incubation at 4° C., high strength magnet", "method": "After a 16 hour incubation at 4° C., beads which bind the 3E7 antibody can be selected using a high strength magnet. The identifier information of the selected beads is then analyzed with a model DAS-4001EM or DAS-4001 detector (Bio Medic Data Systems).", "data": [{"substance": "Tyr-Gly-Gly-L-Phe-L-Leu [YGGFL]", "values": [{"measurement": "selection of ELAMS by the 3E7 antibody", "value": "selected by the 3E7 antibody"}]}]}
